# Data: patent publication US20230011571A1, “SMALL MOLECULE FURIN INHIBITORS FOR TREATING INFECTIOUS DISEASES” (BP Asset V, Inc., priority 2019, published 2023)
# What was measured:
# Format in all cases: cell-based
# [1] = system: Chikungunya virus (CHIKV); test: microbe, parasite or virus in culture; details: for inhibition at 1 µM: Chikungunya virus, Vero, 48 h, read-out: Percent viral inhibition CHKV
# dengue virus (DENV) = test: microbe, parasite or virus in culture; details: for inhibition at 1 µM: Dengue virus, Vero, 120 h, read-out: Percent viral inhibition DENY
# Marburg virus (MARV) = test: organism not typed; details: for inhibition at 1 µM: Vero, 72 h, read-out: Percent viral inhibition MARV
Compound,inhibition at 1 µM [1] [%],inhibition at 1 µM (dengue virus (DENV)) [%],inhibition at 1 µM (Marburg virus (MARV)) [%],Percent viral inhibition CHKV ([1]; 1 µM) [%],Percent viral inhibition DENY (dengue virus (DENV); 1 µM) [%],Percent viral inhibition MARV (Marburg virus (MARV); 1 µM) [%]
"CNC(=O)NCC1CCN(Cc2cc(Oc3cnc(N4CCN(CCCS(C)(=O)=O)CC4)nc3)nc(-c3cc(F)cc(Cl)c3)c2)CC1 [Example 274, 1-((1-((2-(3-chloro-5-fluorophenyl)-6-((2-(4-(3-(methylsulfonyl)propyl)piperazin-1-yl)pyrimidin-5-yl)oxy)pyridin-4-yl)methyl)piperidin-4-yl)methyl)-3-methylurea]",44.4,56.1,49,,,
"COC(=O)NCC1CCN(Cc2cc(Oc3cnc(N4CCNCC4)nc3)nc(-c3cc(F)cc(Cl)c3)c2)CC1 [Example 275, methyl((1-((2-(3-chloro-5-fluorophenyl)-6-((2-(piperazin-1-yl)pyrimidin-5-yl)oxy)pyridin-4-yl)methyl)piperidin-4-yl)methyl)carbamate]",0,0,0,,,
"CS(=O)(=O)CCC1CCN(Cc2cc(Oc3ccc(N4CCN(CCC(=O)O)CC4)nc3)nc(-c3cc(Cl)cc(Cl)c3)c2)CC1 [Example 276, 3-(4-(5-((6-(3,5-dichlorophenyl)-4-((4-(2-(methylsulfonyl)ethyl)piperidin-1-yl)methyl)pyridin-2-yl)oxy)pyridin-2-yl)piperazin-1-yl)propanoic acid]",31.8,27.3,51.8,,,
"NS(=O)(=O)CCC1CCN(Cc2cc(Oc3ccc(N4CCN(CCC(=O)O)CC4)nc3)nc(-c3cc(Cl)cc(Cl)c3)c2)CC1 [Example 277, 3-(4-(5-((6-(3,5-dichlorophenyl)-4-((4-(2-sulfamoylethyl)piperidin-1-yl)methyl)pyridin-2-yl)oxy)pyridin-2-yl)piperazin-1-yl)propanoic acid]",11.7,21.7,61.8,,,
"O=C(O)CC1CCN(Cc2cc(Oc3cnc(N4CCN(CCC5(O)CC5)CC4)nc3)nc(-c3cc(Cl)cc(Cl)c3)c2)CC1 [Example 278, 2-(1-((2-(3,5-dichlorophenyl)-6-((2-(4-(2-(1-hydroxycyclopropyl)ethyl)piperazin-1-yl)pyrimidin-5-yl)oxy)pyridin-4-yl)methyl)piperidin-4-yl)acetic acid]",45.6,45.5,81.7,,,
"CC(C)(O)CCN1CCN(c2ncc(Oc3cc(CN4CCC(CC(=O)O)CC4)cc(-c4cc(Cl)cc(Cl)c4)n3)cn2)CC1 [Example 279, 2-(1-((2-(3,5-dichlorophenyl)-6-((2-(4-(3-hydroxy-3-methylbutyl)piperazin-1-yl)pyrimidin-5-yl)oxy)pyridin-4-yl)methyl)piperidin-4-yl)acetic acid]",37.8,27.5,18.8,,,
"CC(=O)NCC1CCN(Cc2cc(Oc3cnc(N4CCN(C(C)CC(=O)O)CC4)nc3)nc(-c3cc(Cl)cc(Cl)c3)c2)CC1 (stereo not drawn) [Example 282, 3-(4-(5-((4-((4-(acetamidomethyl)piperidin-1-yl)methyl)-6-(3,5-dichlorophenyl)pyridin-2-yl)oxy)pyrimidin-2-yl)piperazin-1-yl)butanoic acid]",8.2,21.8,63.7,,,
"CC(=O)NCC1CCN(Cc2cc(Oc3cnc(N4CCN(CC(C)C(=O)O)CC4)nc3)nc(-c3cc(Cl)cc(Cl)c3)c2)CC1 (stereo not drawn) [Example 283, 3-(4-(5-((4-((4-(acetamidomethyl)piperidin-1-yl)methyl)-6-(3,5-dichlorophenyl)pyridin-2-yl)oxy)pyrimidin-2-yl)piperazin-1-yl)-2-methylpropanoic acid]",29.8,43.8,49.6,,,
"CC(=O)NCC1CCN(Cc2cc(Oc3cnc(N4CCN(CCS(C)(=O)=O)CC4)nc3)nc(-c3cc(Cl)cc(Cl)c3)c2)CC1 [Example 285, N-((1-((2-(3,5-dichlorophenyl)-6-((2-(4-(2-(methylsulfonyl)ethyl)piperazin-1-yl)pyrimidin-5-yl)oxy)pyridin-4-yl)methyl)piperidin-4-yl)methyl)acetamide]",35.3,22.9,80.4,,,
"CC(=O)NCC1CCN(Cc2cc(Oc3cnc(N4CCN(CCS(N)(=O)=O)CC4)nc3)nc(-c3cc(Cl)cc(Cl)c3)c2)CC1 [Example 286, N-((1-((2-(3,5-dichlorophenyl)-6-((2-(4-(2-sulfamoylethyl)piperazin-1-yl)pyrimidin-5-yl)oxy)pyridin-4-yl)methyl)piperidin-4-yl)methyl)acetamide]",0,0,19.2,,,
"CCC(CN1CCN(c2ccc(Oc3cc(CN4CCC(CNC(C)=O)CC4)cc(-c4cc(Cl)cc(Cl)c4)n3)cn2)CC1)C(=O)O (stereo not drawn) [Example 288, 2-((4-(5-((4-((4-(acetamidomethyl)piperidin-1-yl)methyl)-6-(3,5-dichlorophenyl)pyridin-2-yl)oxy)pyridin-2-yl)piperazin-1-yl)methyl)butanoic acid]",28.2,52.2,49.1,,,
"CC(=O)NCC1CCN(Cc2cc(Oc3ccc(N4CCN(CCS(N)(=O)=O)CC4)nc3)nc(-c3cc(Cl)cc(Cl)c3)c2)CC1 [Example 289, N-((1-((2-(3,5-dichlorophenyl)-6-((6-(4-(2-sulfamoylethyl)piperazin-1-yl)pyridin-3-yl)oxy)pyridin-4-yl)methyl)piperidin-4-yl)methyl)acetamide]",,,,28.95,43.48,40.64
"CNC(=O)NCC1CCN(Cc2cc(Oc3ccc(N4CCN(CCS(C)(=O)=O)CC4)nc3)nc(-c3cc(Cl)cc(Cl)c3)c2)CC1 [Example 290, 1-((1-((2-(3,5-dichlorophenyl)-6-((6-(4-(2-(methylsulfonyl)ethyl)piperazin-1-yl)pyridin-3-yl)oxy)pyridin-4-yl)methyl)piperidin-4-yl)methyl)-3-methylurea]",0,18.9,50.6,,,
"CNC(=O)NCC1CCN(Cc2cc(Oc3cnc(N4CCN(CC(C)C(=O)O)CC4)nc3)cc(-c3cc(Cl)cc(Cl)c3)c2)CC1 (stereo not drawn) [Example 292, 3-(4-(5-((3′,5′-dichloro-5-((4-((3-methylureido)methyl)piperidin-1-yl)methyl)-[1,1′-biphenyl]-3-yl)oxy)pyrimidin-2-yl)piperazin-1-yl)-2-methylpropanoic acid]",15.9,26,54.2,,,
"CC(=O)NCC1CCN(Cc2cc(Oc3ccc(N4CCN(CCS(C)(=O)=O)CC4)nc3)cc(-c3cc(Cl)cc(Cl)c3)c2)CC1 [Example 293, N-((1-((3′,5′-dichloro-5-((6-(4-(2-(methylsulfonyl)ethyl)piperazin-1-yl)pyridin-3-yl)oxy)-[1,1′-biphenyl]-3-yl)methyl)piperidin-4-yl)methyl)acetamide]",0,0,0,,,
"COC(=O)NCC1CCN(Cc2cc(Oc3cnc(N4CCN(CCC(=O)O)[C@@H](C)C4)nc3)nc(-c3cc(Cl)cc(Cl)c3)c2)CC1 [Example 294, (S)-3-(4-(5-((6-(3,5-dichlorophenyl)-4-((4-(((methoxycarbonyl)amino)methyl)piperidin-1-yl)methyl)pyridin-2-yl)oxy)pyrimidin-2-yl)-2-methyl-piperazin-1-yl)propanoic acid]",28.7,57.7,54.2,,,
